From PubChem BioAssay (NCI)
Where “and” joins values, the source holds several entries; their conditions need not be identical. Equal entries are not always repeated.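 Method: 48-hour compound exposure of cells in 96-well plates, five concentrations, linear interpolation of endpoints. Here, GI50 denotes the concentration required for 50% inhibition of growth. TGI denotes the concentration required for complete inhibition of growth.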

What was measured:
Experiment in all cases: NCI tumour cell line growth inhibition, 48 h
[1] = system: BT-549 breast
[2] = system: CAKI-1 renal
[3] = system: NCI-H522 lung
[4] = system: OVCAR-3 ovarian
[5] = system: SF-295 CNS
[6] = system: A498 renal
[7] = system: MOLT-4 leukemia
[8] = system: SR leukemia

SMILES | GI50 [1] [µM] | TGI [1] [µM] | GI50 [2] [µM] | TGI [2] [µM] | GI50 [3] [µM] | TGI [3] [µM] | GI50 [4] [µM] | TGI [4] | GI50 [5] [µM] | TGI [5] [µM] | GI50 [6] [µM] | TGI [6] [µM] | GI50 [7] [µM] | TGI [7] [µM] | GI50 [8] [µM] | TGI [8] [µM]
CCCCCCCCCCCCCCCC(=O)OCC1OC(OCCCC)[C@H](O[C@@H]2OC(C)C(OC(=O)CCC)C(O)C2O)C(O)C1O (some centres undefined) | 23.4 | 41.7 | 12.9 | 26.2 | 21.1 | 46.7 | 13.4 | 29.6 µM | 13.8 | 28.2 | – | – | – | – | – | –
Nc1ncc(-c2ccc3ncnc(N4CCc5cc(F)c(Cl)cc54)c3c2)cc1C=O | 1.31 | > 100 | 0.845 | > 26.2 | 2.17 | > 100 | 1.66 | > 100 µM | 1.32 | > 27.9 | 0.167 | 0.758 | 1.01 | 6.56 | 2.67 | > 26
O=C(CCl)N1CCN(c2ccccn2)CC1 | – | – | – | 33.5 | – | – | – | – | – | > 10 | – | 31.4 | – | > 100 | – | > 100
CCN1C[C@@H](C)n2c(c(O)c3c(=O)n(Cc4ccc(F)c(Cl)c4)nc(C(=O)NC)c32)C1=O | 3.49 | > 100 | 3.03 | 16.6 | 2.95 | 9.47 | – | – | 2.88 | > 100 | 1.43 | 4.55 | 4.18 | > 100 | 3.22 | 14.8
Cn1ccc(S(=O)(=O)N2CCC[C@H](Nc3nccc(-c4c(-c5cccc(O)c5)nc5occn45)n3)C2)n1 | 12.7 | 52.9 | 18 | 78.1 | 13 | 36.4 | 13.5 | 51.9 µM | 22.3 | 62.1 | 6.8 | 26.1 | 17.4 | 63.7 | 8.19 | 46.2
O=C(CC(O)(C(F)(F)F)C(F)(F)F)c1cccs1 | – | > 10 | – | > 10 | – | > 10 | – | > 10 µM | – | > 10 | – | – | – | > 10 | – | > 10
O=C1NC(c2cccc3ccccc23)Nc2ccc(Cl)cc21 (centres undefined) | – | – | 0.0109 | 11.2 | – | – | – | 0.0151 µM and 0.0303 µM | – | 0.0232 | – | – | – | 0.00987 | – | 0.000654
C/C(=N\O)C1CC(CC(=O)O)C1(C)C (centres undefined) | – | > 100 | – | > 100 | – | > 100 | – | > 100 µM | – | > 100 | – | > 100 | – | > 100 | – | > 100
CC1(C)CCC2(C(=O)O)C(O)CC3(C)C(=CCC4C5(C)CCC(OC6OCC(O)C(O)C6OC6OCC(O)C(O)C6OC6OCC(O)C(OC7OC(CO)C(O)C(O)C7O)C6O)C(C)(C)C5CCC43C)C2C1 (centres undefined) | – | 86.4 | – | > 100 | – | 49.4 | – | > 100 µM | – | 42.8 | – | 59 | – | – | – | 37.9
O=C1NC(=NCCc2ccccc2F)S/C1=C\c1ccc2ncccc2c1 | 6.48 | > 25 | 5.29 | > 19.7 | 4.74 | 16.9 | 7.35 | 24.2 µM | 7.06 | > 25 | 4.83 | 18.2 | 9.02 | > 25 | 0.88 | 8.83
CC(=O)[CH-]C(=O)c1ccccc1.CC(=O)[CH-]C(=O)c1ccccc1.CC(=O)[CH-]C(=O)c1ccccc1.[Cl-].[Hf+4] | – | – | 20.1 | 62.6 | 26.5 | > 100 | 13.6 | > 100 µM | 19.8 | > 100 | 25.5 | 75.5 | 15.4 | > 100 | – | –
NC(N)=NCCCC(Nc1c2ccccc2nc2ccccc12)C(=O)O (centres undefined) | – | – | – | > 100 | – | > 100 | – | > 100 µM | – | > 100 | – | – | – | > 100 | – | > 100
Cc1ncnc2c1ccn2[C@@H]1C[C@H](Oc2cc(C(F)F)c(F)c3c2CNCC3)[C@@H](O)[C@H]1O | > 100 | > 100 | > 100 | > 100 | > 100 | > 100 | > 100 | > 100 µM | > 100 | > 100 | > 100 | > 100 | > 100 | > 100 | > 100 | > 100
CCN(CC)CCOc1ccc2c(-c3ccccc3)c(-c3ccc(OC)cc3)c(=O)oc2c1 | 6.16 | 19.4 | 3.07 | 10.3 | 4.92 | 18.5 | 4.32 | 16.5 µM | 1.69 | 3.62 | 3.13 | 16.4 | 2.82 | 8.27 | 1.62 | 4.33
CC(=O)CCC[C@@H](C)[C@@H]1O[C@H]([C@@]2(C)CCC(=O)O2)CC2[C@H]1OC(=O)C21CC1 (some centres undefined) | 25.5 | 63.4 | 61.2 | > 100 | > 100 | > 100 | > 100 | > 100 µM | 61.6 | > 100 | – | – | 75.5 | > 100 | 29.4 | > 100
N=C1C(c2nc3ccccc3c(=O)[nH]2)=C(O)CN1c1cccc(Cl)c1 | 13.7 | > 100 | 3.11 | > 29.3 | 4.57 | > 100 | 2.15 | 5.06 µM | 3.23 | 17.8 | 1.9 | 17.1 | 4.51 | > 100 | 0.302 | 2.68
Cn1cc(Nc2nccc(-c3ccc4c(c3)CN(C3COC3)CC[C@H]4NC(=O)c3cn(C(C)(C)C)nn3)n2)cn1 | > 100 | > 100 | 37.7 | > 100 | 96.1 | > 100 | > 100 | > 100 µM | > 100 | > 100 | 76.5 | > 100 | 89.7 | > 100 | > 100 | > 100
COc1cc(C(=O)/C=C/c2cccnc2Nc2ccc(Cl)cc2)cc(OC)c1OC | 1.5 | 2.85 | 1.75 | 4.04 | 1.46 | 3 | 1.31 | 2.62 µM | 1.93 | 3.97 | 1.41 | 2.84 | 2.55 | 10.5 | – | –

SMILES | GI50 [1] [µM] | TGI [1] [µM] | GI50 [2] [µM] | TGI [2] [µM] | GI50 [3] [µM] | TGI [3] [µM] | GI50 [4] [µM] | TGI [4] | GI50 [5] [µM] | TGI [5] [µM] | GI50 [6] [µM] | TGI [6] [µM] | GI50 [7] [µM] | TGI [7] [µM] | GI50 [8] [µM] | TGI [8] [µM]
COC(=O)COc1ccccc1/C=C1/N=C(c2ccccc2)N(c2c(C)n(C)n(-c3ccccc3)c2=O)C1=O | 40.7 | > 100 | > 100 | > 100 | 20 | 48 | 20.9 | 50.9 µM | > 100 | > 100 | > 100 | > 100 | > 100 | > 100 | 31.7 | > 100
COC(=O)C1C(=O)C(C(=O)OC)C2CCC1N2C (centres undefined) | – | 27.3 | – | > 100 | – | > 100 | – | > 72.1 µM | – | > 100 | – | > 100 | – | > 57.9 | – | > 100
O=C(CCl)N1CCN(c2ccccc2)CC1 | – | – | – | 29.9 | – | – | – | – | – | 36.2 | – | 47.2 | – | > 100 | – | > 100
CCN(CC)CCOc1ccc(/C(=C(\C)Cc2ccc(OC)cc2)c2ccc(O)cc2)cc1 | – | – | 1.65 | 3.21 | 1.89 | 3.82 | 1.68 | 3.21 µM | 1.69 | 3.3 | 1.38 | 4.81 | 1.5 | 3.52 | 1.39 | 3.62
CC(=O)NC(CCc1ccc(Cl)c(Cl)c1)c1cccc(O)c(=O)c1 (centres undefined) | 0.803 | 12.8 | 0.195 | 11.9 | 0.488 | 11.9 | 0.358 | 14.7 µM | 0.399 | 10 | 1.15 | 25.8 | 0.74 | 14.4 | 0.622 | 31.1
CN1CCC(=C(c2ccc(Cl)cc2)c2ccccn2)CC1 | 79.8 | > 100 | > 100 | > 100 | 95.5 | > 100 | > 100 | > 100 µM | 37.6 | > 100 | 45.8 | > 100 | > 100 | > 100 | > 100 | > 100
CCN(CC)Cc1cc(Nc2ccnc3ccc(OC)cc23)ccc1O | 9.53 | 27.9 | 1.48 | 4.1 | 2.21 | 5.61 | 3.2 | 20.4 µM | 2.39 | 7.64 | 2.75 | 12.5 | 2.98 | 16.8 | 2.85 | 7.77
Oc1ccc(/C=N/NC(=S)Nc2ccccc2)nc1 | 1.7 | > 100 | 0.667 | > 100 | 1.94 | 39.8 | 0.405 | > 100 µM | – | – | 3 | > 100 | 3.26 | > 100 | 0.582 | > 100
N#C/C(=C\c1ccc(O)c(O)c1)C(=O)NCc1cccc(C(F)(F)F)c1 | 5.99 | 34.4 | 2.05 | 7.39 | 7.71 | 63.2 | – | – | 1.97 | 15.7 | 10.4 | 26.9 | 5.65 | 41.2 | – | –
N#Cc1ncc(-c2ccc(C(F)(F)F)cc2)c(NC2CCCCCC2)n1 | 29.1 | > 100 | 18.3 | > 100 | 6.02 | > 100 | 14.9 | > 100 µM | 27.5 | > 100 | 21.4 | > 100 | 7.42 | > 100 | 16.6 | > 100
Cc1c(Br)c(Br)c2c3c1nc(N1CCNCC1)n3CCC2 | 5.36 | 20.2 | 1.45 | 3.05 | 1.49 | 3.14 | 1.56 | 3.01 µM | 1.86 | 3.68 | 1.44 | 2.99 | – | – | 1.6 | 5.24
COc1ccc(-c2cc(-c3ccc(Cl)cc3)nc(SCCCC(=O)NO)n2)cc1OC | 1.94 | 12 | 0.308 | 1.54 | 1.3 | 4.05 | 0.423 | 2.52 µM | 0.926 | 2.75 | 1.22 | 2.8 | 0.855 | 12.5 | 0.354 | > 100
COc1cccc(N2C(=N)/C(=C3\Nc4ccccc4S3)CC2=O)c1 | 44.9 | > 100 | 8.21 | > 100 | 8.22 | > 100 | 14.8 | > 100 µM | 1.64 | 8.1 | 2.02 | 80 | 2.4 | > 100 | – | –
Cc1ccc2c(-c3ccnc(Nc4cccc(C(F)(F)F)c4)n3)c(-c3ccccc3)nn2n1 | 15 | > 24 | 2.83 | > 25 | 5.73 | > 14.7 | 5.73 | > 18.8 µM | > 13.4 | > 25 | 5.72 | > 15.4 | > 25 | > 25 | – | –
COc1cc2c3c(n(CCCNCCCCN)c(=O)c2cc1OC)-c1cc2c(cc1C3=O)OCO2 | 2.43 | 16.6 | – | 15 | 5.64 | > 100 | 2.77 | 14.1 µM | 0.169 | 16.5 | 5.07 | 21 | – | > 19.6 | – | –
COc1ccc(/C=C/C(=O)C(=O)/C=C/c2ccc(OC)c(OC)c2)cc1OC | 1.81 | 4.45 | 3.17 | > 100 | 3.75 | 19.3 | 2.84 | 9.9 µM | 3.05 | 31.2 | 2.26 | 19.9 | 2.06 | 19.3 | – | –
CN1CCN(CCCCCOc2cc(O)c3c(=O)cc(-c4ccccc4)oc3c2)CC1 | 13.4 | 29.7 | – | – | 2.59 | 6.71 | 3.45 | 8.1 µM | 2.05 | 4.16 | 24.3 | 42.8 | 3.27 | 12.4 | – | –
